Assay results reported in PMC2964380 (Bioorganic & medicinal chemistry, 2010).
Like-named read-outs stand apart in the source and are kept apart here.

Tests used:
HIV-1 (IIIB) [1] = assay: Inhibition of HIV-1; format: cell-based; conditions: Human immunodeficiency virus 1, IIIB, MT2, 120 h, read-out: Cell-Culture EC50
HIV-1 (IIIB) [2] = conditions: MT-2 cell culture, MTT assay; cited from earlier work

| Structure (SMILES) | EC50 (HIV-1 (IIIB) [1]) | EC50 (HIV-1 (IIIB) [2]) |
| --- | --- | --- |
| COc1ccc(OC)c(CCNC(=S)Nc2ccc(Br)cn2)c1 [HI-236] | 0.042 µM |  |
| Cc1cn([C@H]2C=C[C@@H](CO)O2)c(=O)[nH]c1=O [d4T] |  | 2 µM |
